Measured values taken from patent US9428519B2, “Acylated derivative of homoharringtonine, preparation method therefor, and application thereof” (HANGZHOU BENSHENG PHARMACEUTICAL CO., LTD., priority 2011, dated 2016).
Values after ≈ are worked out from the molar mass of the structure shown.

How the values were obtained:
[1] = test system: RPMI8226 (multiple myeloma); assay: MTT growth inhibition of multiple myeloma cells, 72 h; assay type: cell-based, human
Protocol: Multiple myeloma and lymphoma cell lines: RPMI8226 (multiple myeloma), purchased from Fuxiang Bio-tech Co. Ltd., Shanghai, China.
(§1) Obtaining 6000 well-growing leukemia cells and inoculating them into wells of a 96-well cell culture plate. The culture medium is the 1640 cell culture medium containing 10% fetal bovine serum. After adding the homoharringtonine derivatives of different concentrations and mixing uniformly, placing the plate in a carbon dioxide cell incubator (5% CO2) at 37° C. and incubated for 72 hours. Then the viable cell concentration is determined by the MTT method. In this experiment, the cell viability in control group (not treated with any compound) is set as 100%. On such basis, the cell viability (%) after treatment and the 50% inhibiting concentration of the compound for the leukemia cell growth at 72 hours (IC50 value of 72 hours) are calculated.

[2] = test system: NB4 (acute promyelocytic leukemia, AML); assay: MTT growth inhibition of leukemia cells, 72 h; assay type: cell-based, human; details: MTT
From the text: (§2) Leukemia cell lines: leukemia cell lines: K562/adr (drug-resistant, chronic myeloid leukemia, CML), NB4 (acute promyelocytic leukemia, AML), Kasumi-1 (acute myeloid leukemia M2 type, AML-M2), Jurkat (acute lymphoblastic leukemia, ALL), all of which are donated by Cancer Research Institute of Zhejiang University, China; and H9 (acute lymphoblastic leukemia, ALL), which is purchased from China Center for Type Culture Collection (CCTCC).
(§3) Reagents: The standard sample of homoharringtonine (HHT) is purchased from Taihua Natural Plant Pharmaceutical Co., Ltd., Shaanxi, China, the homoharringtonine derivatives of the present invention.
as §1

[3] = test system: Jurkat (acute lymphoblastic leukemia, ALL); assay: MTT growth inhibition of leukemia cells, 72 h; assay type: cell-based, human
From the text: as §2, §3, §1

[4] = test system: Kasumi-1 (acute myeloid leukemia M2 type, AML-M2); assay: MTT growth inhibition of leukemia cells, 72 h; assay type: cell-based, human
From the text: as §2, §3, §1

[5] = test system: K562/adr (drug-resistant, chronic myeloid leukemia, CML); assay: MTT growth inhibition of leukemia cells, 72 h; assay type: cell-based, human; details: MTT
From the text: as §2, §3, §1

[6] = test system: H9 (acute lymphoblastic leukemia, ALL); assay: MTT growth inhibition of leukemia cells, 72 h; assay type: cell-based, human; details: MTT
From the text: as §2, §3, §1

[7] = test system: Huh7 (human liver cancer cell); assay: MTT growth inhibition of human solid tumor cells, 72 h; assay type: cell-based
Protocol: (§4) Human solid tumor cell lines: Hep-2 (laryngeal carcinoma), A549 (human lung cancer), CaES-17 (esophageal cancer cell), PC-3 (prostate cancer), CNE (nasopharyngeal carcinoma cell), and SK-OV-3 (ovarian cancer cell), all of which are purchased from China Center For Type Culture Collection; RKO (human colon adenocarcinoma cell), MGC 803 (human gastric cancer cell), MG63 (osteosarcoma) and U87 MG (malignant glioma cell), all of which are purchased from Fuxiang Bio-tech Co. Ltd., Shanghai, China; PANC-1 (pancreatic cancer), Huh7 (human liver cancer cell), Becap37 (human breast cancer cell), and Hela (human cervical cancer cell), all of which are donated by Cancer Research Institute of Zhejiang University, China.
(§5) Obtaining 4000 well-growing human solid tumor cells and inoculating them into wells of a 96-well cell culture plate. The culture medium is DMEM High Glucose cell culture medium containing 10% fetal bovine serum. The plate is placed in a carbon dioxide cell incubator (5% CO2) at 37° C. and incubated for 24 hours. After adding the homoharringtonine derivatives of different concentration and mixing uniformly, the plate is placed in a carbon dioxide cell incubator (5% CO2) at 37° C. and incubated for 72 hours. Then the viable cell concentration is determined by the MTT method and the cell viability (%) after drug treatment is calculated. In this experiment, the cell viability of control group (not treated with any compound) is set as 100%.

[8] = test system: U87 MG (malignant glioma cell); assay: as above; assay type: cell-based
Protocol: as §4, §5

[9] = test system: RKO (human colon adenocarcinoma cell); assay: as above; assay type: cell-based
Protocol: as §4, §5

MG63 (osteosarcoma) = assay: as above; assay type: cell-based
Protocol: as §4, §5

[10] = test system: Hela (human cervical cancer cell); assay: as above; assay type: cell-based; details: MTT
Protocol: as §4, §5

[11] = test system: CaES-17 (esophageal cancer cell); assay: as above; assay type: cell-based
Protocol: as §4, §5

[12] = test system: PANC-1 (pancreatic cancer); assay: as above; assay type: cell-based
Protocol: as §4, §5

PC-3 (prostate cancer) = assay: as above; assay type: cell-based; details: MTT
Protocol: as §4, §5

[13] = test system: Hep-2 (laryngeal carcinoma); assay: as above; assay type: cell-based
Protocol: as §4, §5

[14] = test system: SK-OV-3 (ovarian cancer cell); assay: as above; assay type: cell-based
Protocol: as §4, §5

A549 (human lung cancer) = assay: as above; assay type: cell-based
Protocol: as §4, §5

[15] = test system: CNE (nasopharyngeal carcinoma cell); assay: as above; assay type: cell-based; details: MTT
Protocol: as §4, §5

[16] = test system: Becap37 (human breast cancer cell); assay: as above; assay type: cell-based
Protocol: as §4, §5

[17] = test system: MGC 803 (human gastric cancer cell); assay: as above; assay type: cell-based
Protocol: as §4, §5

## COC(=O)C[C@](O)(CCCC(C)(C)OC(=O)c1ccco1)C(=O)O[C@@H]1C(OC)=C[C@]23CCCN2CCc2cc4c(cc2[C@H]13)OCO4 [BS-HH-059]
[1]; Homo sapiens, RPMI-8226, MTT
  IC50: 0.006 µg/mL (≈ 0.00938 µM)
  IC90: 0.039 µg/mL (≈ 0.061 µM)
[2]; Homo sapiens
  IC50: 0.006 µg/mL (≈ 0.00938 µM)
  IC90: 0.012 µg/mL (≈ 0.0188 µM)
[3]; Homo sapiens, Jurkat
  IC50: 0.003 µg/mL (≈ 0.00469 µM)
  IC90: ≥ 16 µg/mL
[4]; Homo sapiens, Kasumi 1, MTT
  IC50: 0.005 µg/mL (≈ 0.00782 µM)
  IC90: 0.012 µg/mL (≈ 0.0188 µM)
[5]; Homo sapiens, K562/Adr
  IC50: 0.03 µg/mL (≈ 0.0469 µM)
  IC90: 0.35 µg/mL (≈ 0.547 µM)
[6]; Homo sapiens
  IC50: 0.007 µg/mL (≈ 0.0109 µM)
  IC90: 0.02 µg/mL (≈ 0.0313 µM)
[7]; Homo sapiens, Huh-7
  IC50: 0.012 µg/mL (≈ 0.0188 µM)
  IC90: 0.081 µg/mL (≈ 0.127 µM)
[8]; Homo sapiens, U-87 MG
  IC50: 0.023 µg/mL (≈ 0.036 µM)
  IC90: 0.18 µg/mL (≈ 0.281 µM)
[9]; Homo sapiens, MTT
  IC50: 0.001 µg/mL (≈ 0.00156 µM)
  IC90: 0.015 µg/mL (≈ 0.0234 µM)
[9]; vs HHT
  anti-RKO effect relative to homoharringtonine: substantially superior
MG63 (osteosarcoma); Homo sapiens, MG-63, MTT
  IC50: 0.02 µg/mL (≈ 0.0313 µM)
  IC90: 3.08 µg/mL (≈ 4.81 µM)
MG63 (osteosarcoma); vs HHT
  anti-MG63 effect relative to homoharringtonine: substantially superior
[10]; Homo sapiens, HeLa
  IC50: 0.014 µg/mL (≈ 0.0219 µM)
  IC90: 16 µg/mL (≈ 25 µM)
[11]; Homo sapiens, CaEs17
  IC50: 0.029 µg/mL (≈ 0.0453 µM)
  IC90: 16 µg/mL (≈ 25 µM)
[12]; Homo sapiens, PANC-1, MTT
  IC50: 0.029 µg/mL (≈ 0.0453 µM)
  IC90: > 16 µg/mL
PC-3 (prostate cancer); Homo sapiens
  IC50: 0.08 µg/mL (≈ 0.125 µM)
  IC90: > 16 µg/mL
[13]; Homo sapiens, HEp-2
  IC50: 0.015 µg/mL (≈ 0.0234 µM)
  IC90: > 16 µg/mL
[14]; Homo sapiens, SK-OV-3, MTT
  IC50: 0.08 µg/mL (≈ 0.125 µM)
  IC90: > 16 µg/mL
A549 (human lung cancer); Homo sapiens, A549
  IC50: 0.03 µg/mL (≈ 0.0469 µM)
  IC90: > 16 µg/mL
[15]; Homo sapiens
  IC50: 0.031 µg/mL (≈ 0.0485 µM)
  IC90: > 16 µg/mL
[16]; Homo sapiens
  IC50: 0.007 µg/mL (≈ 0.0109 µM)
  IC90: 7.4 µg/mL (≈ 11.6 µM)
[17]; Homo sapiens, MGC-803
  IC50: 0.021 µg/mL (≈ 0.0328 µM)
  IC90: 0.11 µg/mL (≈ 0.172 µM)

## COC(=O)C[C@](O)(CCCC(C)(C)OC(=O)c1cnoc1C)C(=O)O[C@@H]1C(OC)=C[C@]23CCCN2CCc2cc4c(cc2[C@H]13)OCO4 [BS-HH-061]
[1]; MTT
  IC50 RPMI8226: 0.062 µg/mL (≈ 0.0947 µM)
  IC90 RPMI8226: 0.25 µg/mL (≈ 0.382 µM)
[2]
  IC50 NB4: 0.07 µg/mL (≈ 0.107 µM)
  IC90 NB4: 0.14 µg/mL (≈ 0.214 µM)
[3]
  IC50 Jurkat: 0.071 µg/mL (≈ 0.108 µM)
  IC90 Jurkat: ≥ 16 µg/mL
[4]; MTT
  IC50 Kasumi-1: 0.062 µg/mL (≈ 0.0947 µM)
  IC90 Kasumi-1: 0.23 µg/mL (≈ 0.351 µM)
[5]
  IC50 K562/adr: 0.24 µg/mL (≈ 0.367 µM)
  IC90 K562/adr: 12.57 µg/mL (≈ 19.2 µM)
[6]
  IC50 H9: 0.14 µg/mL (≈ 0.214 µM)
  IC90 H9: 0.25 µg/mL (≈ 0.382 µM)
[7]
  IC50 Huh7: 0.056 µg/mL (≈ 0.0855 µM)
  IC90 Huh7: 0.34 µg/mL (≈ 0.519 µM)
[8]
  IC50 U87 MG: 0.31 µg/mL (≈ 0.473 µM)
  IC90 U87 MG: 0.96 µg/mL (≈ 1.47 µM)
[9]; MTT
  IC50 RKO: 0.039 µg/mL (≈ 0.0596 µM)
  IC90 RKO: 0.24 µg/mL (≈ 0.367 µM)
MG63 (osteosarcoma); MTT
  IC50 MG 63: 0.093 µg/mL (≈ 0.142 µM)
  IC90 MG 63: 10.76 µg/mL (≈ 16.4 µM)
[10]
  IC50 Hela: 0.31 µg/mL (≈ 0.473 µM)
  IC90 Hela: 16 µg/mL (≈ 24.4 µM)
[11]
  IC50 CaES-17: 0.38 µg/mL (≈ 0.58 µM)
  IC90 CaES-17: 16 µg/mL (≈ 24.4 µM)
[12]; MTT
  IC50 PANC-1: 0.21 µg/mL (≈ 0.321 µM)
  IC90 PANC-1: >16 µg/mL
PC-3 (prostate cancer)
  IC50 PC-3: 3.15 µg/mL (≈ 4.81 µM)
  IC90 PC-3: >16 µg/mL
[13]
  IC50 Hep-2: 0.39 µg/mL (≈ 0.596 µM)
  IC90 Hep-2: >16 µg/mL
[14]; MTT
  IC50 SK-OV-3: 0.4 µg/mL (≈ 0.611 µM)
  IC90 SK-OV-3: >16 µg/mL
A549 (human lung cancer)
  IC50 A549: 0.52 µg/mL (≈ 0.794 µM)
  IC90 A549: >16 µg/mL
[15]
  IC50 CNE: 0.42 µg/mL (≈ 0.642 µM)
  IC90 CNE: >16 µg/mL
[16]
  IC50 Becap37: 0.17 µg/mL (≈ 0.26 µM)
  IC90 Becap37: 16 µg/mL (≈ 24.4 µM)
[17]
  IC50 MGC 803: 0.058 µg/mL (≈ 0.0886 µM)
  IC90 MGC 803: 0.16 µg/mL (≈ 0.244 µM)
